Measured values as given in paper PMC7615676, “Short-course combination treatment for experimental chronic Chagas disease” (Science translational medicine, 2023).
Like-named read-outs stand apart in the source and are kept apart here.

What was measured:
[1] = intrinsic clearance in mouse liver microsomes; format: in vitro ADME
Method: Immediately at time zero and at several serial times points up to 30 min, an aliquot of the incubation mixture was removed and mixed with acetonitrile to stop the reaction. Internal standard was added to all samples, the samples centrifuged to sediment precipitated protein and the plates then sealed prior to HPLC-MS/MS analysis. Metabolic stability expressed as a percentage of the parent molecule was calculated using the peak area ratio (compound peak area/internal standard peak area) of different compounds remaining after each incubation time compared to time zero of the incubation. The half-life (t1/2) was calculated using the following equation: t1/2=−ln(2)/k, where k is the turn-over rate constant of the ln (percent remaining) vs time regression.
CLint was calculated from the half-life (t1/2) using the following equations:
CLint (ml/min/g liver) = (0.693/(t1/2) x (ml of incubation/mg microsomal protein) x (mg microsomal protein/g liver).

[2] = system: chronic T. cruzi infection (CL Brener) in BALB/c mice; test: bioluminescent mouse model of chronic Chagas disease; format: in vivo, Trypanosoma cruzi; details: 5 days
[3] = biological target: T. cruzi complex III (epimastigote lysates) (Trypanosoma cruzi, UniProt Q9T479); test: T. cruzi complex III assay; format: biochemical; details: decylubiquinol substrate
T. cruzi complex III (epimastigote lysates), sequence (Q9T479 entry or part of it, one chain of several): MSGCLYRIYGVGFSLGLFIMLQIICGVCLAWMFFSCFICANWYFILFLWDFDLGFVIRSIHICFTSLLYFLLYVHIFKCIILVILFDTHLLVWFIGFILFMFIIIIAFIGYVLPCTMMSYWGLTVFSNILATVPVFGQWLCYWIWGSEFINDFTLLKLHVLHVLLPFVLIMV
Method: Complex III activity within these lysates was monitored in the presence and absence of compound 3, compound 5 and related analogues from this series, using decylubiquinol as a pseudo-substrate ([43]).
Measurement of complex III activity and inhibition were performed as described previously ([43]).

[4] = bioanalysis of blood samples from in vivo efficacy studies; set-up: species or system BALB/c mice; details: for AUC0-7h Day 1, unbound concentrations of compound 3 / AUC0-7h Day 5, unbound concentrations of compound 3 / Cmax Day 1, unbound concentrations of compound 3 / Cmax Day 5, unbound concentrations of compound 3: 50mg/kg bid, 5 days; for AUC(0-t) / Cmax: BALB/c, mouse, whole blood, po, 50 mg/kg, compound 3 50mg/kg bid
Method: Following the first daily dose on day 1 and last day of treatment, serial blood samples were taken by the tail vein from all treated mice pre-dose, then 30 minutes, 1, 2, 4, and 8 hours post-dose, mixed with two volumes of distilled water and analyzed for test compound. Quantification of compounds was performed by means of LC/MSMS and exposure parameters namely Cmax and AUClast were estimated using Phoenix 64 (Pharsight Certara).

HepG2 cells = test: general cytotoxicity assay in HepG2 cells; format: cell-based; details: Homo sapiens, HepG2, 48 h, CellTiter-Glo
Method: This assay was previously described ([36]). Briefly, actively growing HepG2 cells were removed from a T-175 TC flask using 5 ml Eagle’s MEM (containing 10 % FBS, 1 % NEAA, 1 % penicillin/ streptomycin. Carbon source is D-glucose at 1 g/l) and dispersed in the medium by repeated pipetting. Seeding density was checked to ensure that new monolayers were not more than 50 % confluent at the time of harvesting. Cell suspension was added to 500 ml of the same medium at a final density of 1.2 x 10^5 cells/ml. This cell suspension was dispensed (25 μl, 3000 cells per well) into 384-well clear-bottom plates using a Multidrop Combi dispenser. Prior to addition of the cell suspension, the screening compounds (250 nl) were predispensed into the plates with an EchoH liquid handler. Plates were incubated for 48 h at 37°C, 5% CO2. After incubation, plates equilibrated at room temperature for 30 min before proceeding to develop the luminescent signal. The signal developer, CellTiter-Glo Reagent, was allowed to equilibrate at room temperature for 30 min and added to the plates ([…]) using a Multidrop Combi dispenser. Plates were left for 10 min at room temperature for stabilization and then read using a ViewLux.

[5] = system: intracellular T. cruzi amastigotes, strain Silvio X10/7 A1; test: intracellular T. cruzi amastigote potency assay; format: cell-based; details: Trypanosoma cruzi
Property Forecast Index = format: physicochemical; details: number of aromatic rings + ChromLogD at pH 7.4
[6] = plasma protein binding, equilibrium dialysis; format: in vitro ADME; details: pH 7.4, mouse plasma, read-out: Mouse PPB % (converted)
Method: In vitro plasma protein binding was measured in mouse and human plasma using equilibrium dialysis at a nominal concentration of 2 μM. The RED inserts were placed in the 48 wells of the Teflon Plate (Pierce). Samples were prepared by mixing the test compound with plasma at the appropriate concentrations to yield a final drug concentration of 2 μM. Triplicate aliquots of plasma containing compounds at a concentration of 2 μM were pipetted to plasma side (red) of the insert, and PBS (phosphate buffered saline) pH 7.4 was placed into the receiver side (white) of the insert. The plate was covered with the sealing tape and incubated in a 37 °C orbital shaker water bath at approximately 150 rpm for 4 h. Following incubation, samples were prepared in a mixed matrix configuration. Aliquots of samples were pipetted into 96-well plates, and precipitation buffer was added to protein precipitate the samples. Samples were vortexed to mix, then centrifuged for 15 min at 3700 rpm and 4 °C. The supernatant was assayed directly by LC−MS/MS. The following equation was used to calculate the percentage bound drug fraction using this equilibrium dialysis method
% unbound = (buffer chamber]/[plasma chamber) x100

[7] = system: T. cruzi culture derived trypomastigotes, strain Silvio X10/7 A1; test: trypomastigote assay; format: cell-based; details: Trypanosoma cruzi
Method: Trypomastigote assays using strain Silvio X10/7 subclone A1 were carried out as described in ([19]). Parasite culture and potency determinations for panel of strains were performed as in ([19]). Strains used were M6241 clone 6 (DTU III), ERA clone 2 (DTU IV), PAH179 clone 5 (DTU V) and CL Brener-Luciferase (PpyRE9h-expressing T. cruzi, same strain that is used in animal model studies ([67])) (DTU VI). […] For Y strain compound exposure time was 3 days. Rate-of-kill assays were carried out as described in ([39]).

[8] = dosing group 3 + BNZ (30mg/kg qd)

COc1cc(Cl)ccc1-c1c(C)[nH]c2nc(N)nc(C)c12 [Compound 3, 5-(4-Chloro-2-methoxyphenyl)-4,6-dimethyl-7H-pyrrolo[2,3-d]pyrimidin-2-amine]
Cl int mouse [1]: 1.4 ml/min/g liver | half-life at 0.5 μM ([1]; male, CD-1, read-out: T 1/2 mouse): 48 min | 95% confidence interval for no-relapse ([2]; Fig. 3, compound 3 50 mg/kg bid): 0.19 − 0.81 | animals relapsed ([2]; compound 3 monotherapy 50 mg/kg bid, oral): three out of six | IC50 [3]: 2 ± 0.3 nM | AUC0-7h Day 1, unbound concentrations of compound 3 [4, 8]: 2234 ± 509 ng·h/mL | AUC0-7h Day 5, unbound concentrations of compound 3 [4, 8]: 5525 ± 663 ng·h/mL | Cmax Day 1, unbound concentrations of compound 3 [4, 8]: 412 ± 88 ng/mL | Cmax Day 5, unbound concentrations of compound 3 [4, 8]: 977 ± 129 ng/mL | AUC0-7h Day 1, unbound concentrations of compound 3 ([4]; dosing group 3 alone): 3024 ± 619 ng·h/mL | AUC0-7h Day 5, unbound concentrations of compound 3 ([4]; dosing group 3 alone): 6094 ± 870 ng·h/mL | Cmax Day 1, unbound concentrations of compound 3 ([4]; dosing group 3 alone): 530 ± 95 ng/mL | Cmax Day 5, unbound concentrations of compound 3 ([4]; dosing group 3 alone): 1014 ± 185 ng/mL | AUC(0-t) ([4]; 10-day study, read-out: AUC0-7h Day 1): 1800 ± 243 ng·h/mL | AUC(0-t) ([4]; 10-day study, read-out: AUC0-7h last day): 7790 ± 1560 ng·h/mL | Cmax ([4]; 10-day study, read-out: Cmax Day 1): 325 ± 59 ng/mL | Cmax ([4]; 10-day study, read-out: Cmax last day): 1250 ± 259 ng/mL | AUC(0-t) ([4]; 20-day study, read-out: AUC0-7h Day 1): 2740 ± 388 ng·h/mL | AUC(0-t) ([4]; 20-day study, read-out: AUC0-7h last day): 4920 ± 479 ng·h/mL | Cmax ([4]; 20-day study, read-out: Cmax Day 1): 480 ± 69 ng/mL | Cmax ([4]; 20-day study, read-out: Cmax last day): 810 ± 75 ng/mL | EC50 (HepG2 cells; read-out: HepG2 EC50): 79000 nM | EC50 (HepG2 cells; read-out: HepG2 pEC50 (converted)): 79400 nM | EC50 ([5]; intracellular amastigotes Silvio X10/7 A1, 96 h, ± SD, min. three experiments, read-out: Amastigotes pEC50 (converted)): 10 nM | EC50 ([5]; read-out: Amastigotes EC50): 10 nM | PFI (Property Forecast Index): 7.2 | fraction unbound at 4 h, 2 μM [6]: 0.03 | EC50 ([7]; read-out: Trypomastigotes EC50): 10 nM | EC50 ([7]; read-out: Trypomastigotes pEC50 (converted)): 12.6 nM
